The text below walks through data of ChEMBL document CHEMBL1201862, “PubChem BioAssay data set” (2004).

Holding throughout (assay): NCI tumour cell line growth inhibition, 48 h
Test [1] relates to OVCAR-4.
Test [2] has as its system SF-539.
For test [3], the system named is EKVX.
Test [4] has as its system UO-31.
Test [5] deals with HCT-116.
Test [6] relates to OVCAR-3.
Test [7] has as its system NCI-H522.
Test [8] deals with 786-0.
Test [9] deals with NCI-H226.
Test [10] relates to COLO 205.
Test [11] deals with KM12.
Test [12] has as its system A549.
Test [13] concerns SK-MEL-2.
Test [14] relates to SW-620.
The subject of test [15] is CAKI-1.
Test [16] has as its system M14.
The test system of test [17] is HL-60.

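Test compounds were applied to cells in 96-well plates for 48 hours at 5 doses. GI50: concentration for 50% inhibition of growth.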 Activity calls are given as the source filed them. No stated cut-off is given here; in the data, active = GI50 up to about 1.1 µM and inactive = higher. Some results are limits rather than exact numbers.

For the compound `COC(=O)C1=C(C(=O)OC)N(C(C)C)[C@H]2C(C(=O)OC)=C(C(=O)OC)N(C(C)C)[C@@H]12`, the GI50 in [1] was > 100 µM (inactive); in test [2], > 100 µM (inactive); in [3] it was > 100 µM (inactive); in test [4] it was > 100 µM (inactive); in test [5], > 100 µM (inactive); in [6] it was 95.1 µM (inactive). In addition, the GI50 in test [7], in test [8], in test [9], in test [10], in test [11] and in test [12] was > 100 µM (inactive) each time. Further, the GI50 is > 100 µM (inactive) in [13]; > 100 µM (inactive) in test [14]; > 100 µM (inactive) in test [15]; > 100 µM (inactive) in [16]; 61.5 µM (inactive) in [17].
On to `CN1C(=O)CC(c2cccc(C3CC(=O)N(C)C3=O)n2)C1=O` (configuration not stated), for which the GI50 in test [1], in test [2], in test [3], in test [4], in test [5] and in [6] was > 100 µM (inactive) in each case. Further, the GI50 in test [7], in [8], in test [9], in test [10], in test [11] and in test [12] was > 100 µM (inactive) each time. Moreover, the GI50 in [13], in test [14], in [15], in test [16] and in test [17] was > 100 µM (inactive) throughout.
With `[O-][Cl+3]([O-])([O-])[O-].c1ccc(-c2csc3c4ccccc4c4ccccc4[n+]23)cc1`, the GI50 in test [1] was 3.96 µM (inactive); in test [2], 3.25 µM (inactive); in [3], 8.79 µM (inactive); in test [4], 10.7 µM (inactive); in [5] it was 2.32 µM (inactive); in [6] it was 0.897 µM (active). Further, the GI50 was 1.67 µM (inactive) in test [7]; 4.85 µM (inactive) in test [8]; 3.1 µM (inactive) in test [9]; 2.25 µM (inactive) in test [10]; 1.47 µM (inactive) in test [11]; 2.17 µM (inactive) in test [12]. The GI50 was 2.54 µM (inactive) in [13]; 3.5 µM (inactive) in test [14]; 7.5 µM (inactive) in [15]; 9.48 µM (inactive) in test [16]; 1.91 µM (inactive) in test [17].
As to `COC(=O)C(Cc1nc2ccc(Cl)cc2nc1O)C(=O)C(=O)Nc1cc(C)ccc1C` (configuration not stated), the GI50 in test [1] was > 100 µM (inactive); in test [2], > 100 µM (inactive); in test [3], 8.2 µM (inactive); in test [4], > 100 µM (inactive); in [5] it was > 100 µM (inactive); in test [6] it was > 100 µM (inactive). Besides, the GI50 in test [7], in test [8], in test [9], in test [10], in test [11] and in test [12] was > 100 µM (inactive) in each case. The GI50 in [13], in test [14], in test [15], in [16] and in [17] was > 100 µM (inactive) in each case.
In the case of `CCCCCN(CCCCC)C(=O)[C@@H](CCC(=O)O)NC(=O)c1cc2ccccc2[nH]1`, the GI50 in [1] was 44 µM (inactive); in test [2], 22.3 µM (inactive); in test [3], 48.1 µM (inactive); in test [4] it was 21.4 µM (inactive); in test [5], 17.9 µM (inactive); in test [6], 33.9 µM (inactive). In addition, the GI50 in test [7] is 13.5 µM (inactive); in test [8] it was 46.5 µM (inactive); in [9], 37.3 µM (inactive); in [10], 30.9 µM (inactive); in test [11], 39.3 µM (inactive); in [12], 39.3 µM (inactive). The GI50 in test [13] is 27.7 µM (inactive); in test [14] it was 63.1 µM (inactive); in [15], 25.1 µM (inactive); in [16] it was 23.2 µM (inactive); in test [17], 24.1 µM (inactive).
With `COC1=CC(=O)c2ccc(C(C)C)cc2C1(C)C1=NC(C)(C)CO1` (configuration not stated), the GI50 in test [1], in test [2], in test [3], in test [4], in test [5] and in test [6] was > 100 µM (inactive) in each case. For the same compound, the GI50 in [7] is 77.4 µM (inactive); in test [8] it was > 100 µM (inactive); in [9], > 100 µM (inactive); in [10] it was > 100 µM (inactive); in test [11] it was > 100 µM (inactive); in [12], > 100 µM (inactive). The GI50 is > 100 µM (inactive) in test [13]; > 100 µM (inactive) in test [14]; > 100 µM (inactive) in test [15]; > 100 µM (inactive) in [16]; 63 µM (inactive) in test [17].
For the compound `CCCCC(C)C(OC(=O)CC(CC(=O)O)C(=O)O)C(CC(C)CC(O)CCCCC(O)CC(O)C(C)N)OC(=O)CC(CC(=O)O)C(=O)O` (configuration not stated), the GI50 in [1], in test [2], in [3], in test [4], in test [5] and in [6] was > 100 µM (inactive) in each case. The GI50 in test [7], in [8], in test [9], in test [10], in test [11] and in test [12] was > 100 µM (inactive) each time. For the same compound, the GI50 in test [13] is > 100 µM (inactive); in test [14] it was > 100 µM (inactive); in [15], > 100 µM (inactive); in test [16], > 100 µM (inactive); in test [17], > 69.8 µM (inactive).
Take `N#CCC(=O)NC1C2CC3CC(C2)CC1C3` (configuration not stated): the GI50 in test [1] is 21.2 µM (inactive); in test [2], 18 µM (inactive); in test [3], 18.9 µM (inactive); in [4] it was 49 µM (inactive); in test [5], 15.2 µM (inactive); in [6], 18.1 µM (inactive). The GI50 in test [7] is 17.1 µM (inactive); in test [8], 19.5 µM (inactive); in [9], 22.2 µM (inactive); in [10] it was 19.3 µM (inactive); in test [11] it was 17.7 µM (inactive); in test [12] it was 34 µM (inactive). For the same compound, the GI50 in test [13] is 19.5 µM (inactive); in [14], 25.4 µM (inactive); in test [15] it was 18.6 µM (inactive); in test [16] it was 19.9 µM (inactive); in test [17], 22.8 µM (inactive).
For `COc1cc(CCC(=O)NS(=O)(=O)c2ccccc2)cc(OC)c1OC`, the GI50 in test [1], in [2], in [3], in [4], in [5] and in [6] was > 100 µM (inactive) throughout. The GI50 in [7], in test [8], in test [9], in [10], in test [11] and in test [12] was > 100 µM (inactive) each time. For the same compound, the GI50 in test [13], in [14], in test [15], in test [16] and in [17] was > 100 µM (inactive) each time.
For `O=C(CC1(O)C(=O)Nc2c(Cl)ccc(Cl)c21)c1ccc2ccccc2c1` (configuration not stated), the GI50 in [1] was 2.29 µM (inactive); in test [2] it was 13.5 µM (inactive); in test [3], 15.8 µM (inactive); in [4], 18.1 µM (inactive); in [5] it was 11.7 µM (inactive); in test [6] it was 4.17 µM (inactive). The GI50 in test [7] was 2.88 µM (inactive); in [8], 6.25 µM (inactive); in test [9], 19.2 µM (inactive); in test [10] it was 14.9 µM (inactive); in test [11], 4.69 µM (inactive); in test [12], 18.3 µM (inactive). The GI50 is 11.6 µM (inactive) in test [13]; 3.36 µM (inactive) in test [14]; 4.46 µM (inactive) in test [15]; 8.85 µM (inactive) in test [16]; 1.73 µM (inactive) in [17].
With `O=c1ncccn1[C@@H]1O[C@H](CO)[C@H](O)C1O` (some centres not stated), the GI50 in [1] is > 100 µM (inactive); in test [2], > 75.3 µM (inactive); in test [3] it was > 100 µM (inactive); in test [4] it was > 100 µM (inactive); in test [5], > 70.8 µM (inactive); in test [6] it was > 100 µM (inactive). The GI50 in test [7] is > 88.5 µM (inactive); in test [8] it was > 78 µM (inactive); in test [9] it was > 100 µM (inactive); in test [10], > 88.7 µM (inactive); in [11] it was > 100 µM (inactive); in test [12], > 89.5 µM (inactive). Further, the GI50 in test [13] was > 73.5 µM (inactive); in test [14], > 100 µM (inactive); in test [15], 38.8 µM (inactive); in test [16], > 100 µM (inactive); in test [17], 47.3 µM (inactive).
